Assay results: patent US20080300299A1, “Application of Eriocalyxin B in the Manufacture of Medicaments For Treating Leukemia” (Rui Jin Hospital Affiliated to Shanghai Second Medical …, priority 2005, published 2008)
Where “and” joins values, the source holds several entries; their conditions need not be identical. Identical values can stand only once.

Columns and labels:
Kasumi-1 cells [1] = assay: ROS level flow cytometry; assay type: cell-based, human
Procedure: (§1) (IV) Flow cytometric for annexin-V, cell cycle, mitochondrial transmembrane potential and reactive oxygen species (ROS) generation: Cell apoptosis was analyzed using an ApoAlert Annexin V-FITC Apoptosis kit (BD). In the process of analyzing the cell cycle, the cells were fixed overnight in methanol at −20° C., followed by treatment of Tris-HCl buffer (pH 7.4) comprising 1% RNase, 50 μg/ml PI staining. In the detection of mitochondrial transmembrane potential, the cells were washed with PBS, incubated at 37° C. and with […] Rh123 for 30 minutes, and then staining with 50 μg/ml PI. DCFH-DA was used to detect ROS levels, thus the cells were washed with PBS, and incubated at 37° C. and with […] DCFH-DA for 30 minutes. Fluorescence intensity was measured by flow cytometry.

Kasumi-1 cells [2] = assay: Mitochondrial transmembrane potential (Rh123 flow cytometry); assay type: cell-based, human
Procedure: as §1

Bax = assay: Western blot and RT-PCR of Bax in Kasumi-1 cells; assay type: cell-based, human; conditions: EriB 24 and 48 hours
Procedure: (§2) (VII) Western Blot analysis: lysing 5×10^6 cells with 200 μl Laemmli lysis buffer (0.5M Tris-HCl, pH 6.8, 2 mM EDTA, 10% glycerol, 2% SDS and 5% β-mercaptoethanol). Protein lysate (20 μg) was used on 10% polyacrylamide gel electrophoresis, and then transferred to nitrocellulose membranes. Nitrocellulose membranes were blocked with TBS/0.05% Tween 20 5% skim (nonfat) milk, and afterwards, incubated with primary antibody for two hours at room temperature, and incubated with horseradish peroxidase labeled IgG for one hour. The Immunocomplexes were detected with chemiluminescence horseradish peroxidase detection kit. The signal intensities of the respective bands were analyzed with Quantity One version 4.1.1 software.
(§3) (IX) Semi-quantitative reverse transcription-PCR (RT-PCR): the total RNA was extracted using Trizol (Invitrogen). Random hexamers and Superscript II (Invitrogen) ART were used for reverse transcribed into cDNA. The present invention utilized the following primers: […]

[3] = test system: primary leukemia cells from patients with t(8;21); assay: Growth inhibition of primary leukemia cells (trypan blue exclusion); assay type: cell-based, human; conditions: 0.1 and 0.25 μM EriB, all five patients
Excerpt: (§4) (II) Cell culture, cell survival and cell morphology: the present invention utilized the following human cell lines: AML leukemia with t(8;21) chromosomal translocation Kasumi-1 cell lines, which is also known as acute myeloid leukemia comprising AML1-ETO fusion gene; acute promyelocytic leukemia NB4, NB4/R1 and NB4/R2 cell lines, and acute myeloid leukemia U937 cell lines; Burkitt's lymphoma (Raji and Daudi) cell lines; T-cell acute lymphoblastic leukemia (Jurkat) cell lines. The present invention studied by collecting primary leukemia cells from five AML patients with t(8;21). The diagnoses of patients were established on the bases of morphological examination, cytogenetics study detection of t(8;21) chromosomal translocation, and RT-PCR detection of AML1-ETO fusion protein. Leukemia cells were prepared in the following conditions: separated with Lymphocyte Separation Medium, further isolated and cultured in RPMI-1640 medium (Gibco/BRL), in addition, added 10% FBS (PAA) in 5% CO2-95% air and saturated humidity, and at 37° C. In each experiment, cell inoculation density is 2×10^5/ml. The survival rate of cells was accessed using trypan blue dye-exclusion experiments. Cell observations were done by using the Wright's staining method.

ERK1/2 = assay: Western blot of phosphorylated ERK1/2 in Kasumi-1 cells; assay type: cell-based, human; conditions: EriB 12 and 24 hours
Procedure: as §2

AP-1 = AP-1 luciferase report assay in Kasumi-1 cells; assay type: cell-based, human; conditions: 0.5 μM EriB for 4 hours
Procedure: (§5) (X) Luciferase report assay: Kasumi-1 cells were resuspended in cultured medium, added the gene vector [10 μg, NF-κB-mediated luciferase reporter plasmid or pAP1-luc (Clontech), and 2 μg of β-galactosidase enzyme expression plasmid for correcting cell transfection efficiency of the CMV-mediated. Cell transfection conditions were: 1000V, 25 μF, and the instrument came from the Bio-Rad Laboratories, Inc. Transfections after 36 hours, the cells were treated with EriB and/or TNFα, and then the cells were lysed. Luciferase activity was measured by lumat LB 9507 tube luminometer (EG&G Berthold). Cell lysates were mixed with 2×β-half-galactosidase reaction reagents, after incubated for one hour at 37° C., the termination of reaction by adding 1 M Na2CO3. The β-galactosidase enzyme absorbance values were measured at 420 nm by spectrophotometer.

Bcl-2 = assay: Western blot and RT-PCR of Bcl-2 in Kasumi-1 cells; assay type: cell-based, human; conditions: EriB 24 and 48 hours
Procedure: as §2, §3

NF-κB [4] = assay: Gel electrophoresis shift assay (EMSA) of NF-κB DNA binding; assay type: cell-based, human; conditions: EriB added one hour before TNF-α
Procedure: (XI) Gel electrophoresis shift assay: nucleoprotein extracts of Kasumi-1 cells were quantitatively determined by using Coomassie plus reagent (Pierce). Nucleoprotein (10 μg) and ^32P marked double-stranded NF-κB (5′-[…]-3′) were sequentially incubated, and then […] using 4% of non-denaturing PAGE gel; the marked bands were detected by using autoradiography.

Kasumi-1 cells [5] = assay: Differentiation associated antigen expression; assay type: cell-based, human; conditions: 0.1 and 0.25 μM EriB for seven days
[6] = test system: human malignant hematopoietic cell; assay: MTT cell growth inhibition, whole panel; assay type: cell-based; conditions: all cell lines tested
Excerpt: as §4, with “The survival rate of cells was accessed using trypan blue dye-exclusion experiments. Cell observations were done by using the Wright's staining method.” left out
(§6) (III) MTT experiment: cells were treated with EriB at concentrations of 0.1, 0.25, 0.5, 1, 2, 4, 6, 8 and 10 μM in a 96-hole plate. After 72 hours, 0.1 mg MTT was added to each hole, incubated at 37° C. for four hours later, absorbance values were measured at 570 nm by spectrophotometer.

[7] = test system: MigA/Etr cells expressing C-terminal truncated AML1-ETO; assay: C57 murine model of t(8;21) leukemia; assay type: in vivo, mice; conditions: for median survival time: control 25 days, P<0.001
Procedure: (XII) Leukemia murine model: female C57 mice and nude mice (5-6 weeks) were bred in special pathogen-free environment. C57 mice received 400 cGy from a high-energy linear accelerator at the dose rate of 100 cGy per minute. After 24 hours, the C57 mice were injected with 3×10^6 Mig/Etr cells expressing carbon-terminal truncated AML1-ETO of 0.2 ml PBS via tail vein intravenous injection. Treatments (12 mice in each group) were started five days after injection of leukemia cells. The control group and the EriB treated group, all respectively receive EriB (1.25, or 2.5 mg/kg, intraperitoneal injection for two weeks) and diluents (1% Pluronic F68).
EriB efficacy in the treatment of murine models. C57 mice were irradiated by lethal dose (LD)50 and injected via tail vein intravenously with 3×10^6 MigA/Etr cells expressing of C-terminal truncated AML1-ETO (day 0). Beginning on day 5, intraperitoneal injection of EriB ([…]) for two weeks. The overall survival rate was measured and calculated started from day 0 to the date of death. All the mice eventually develop symptoms of anemia and difficulty breathing, and also the occurrence of a large number of primitive blood cells in the peripheral blood.

AML1-ETO fusion protein = assay: Western blot of AML1-ETO (anti-ETO antibody) in Kasumi-1 cells; assay type: cell-based, human; conditions: EriB 24 and 48 hours
Procedure: as §2

caspase-3 = assay: Western blot of caspase-3 activation and PARP; assay type: cell-based, human; conditions: EriB; Kasumi-1, NB4 and NB4/R2 cells
HL60 cells = assay: MTT cell growth inhibition; assay type: cell-based, human; conditions: 72 hours
Procedure: as §6

NF-κB [8] = assay: NF-κB luciferase report assay in Kasumi-1 cells; assay type: cell-based, human; conditions: pre-treatment with EriB for one hour, then TNF-α four hours
Procedure: as §5

NF-κB (P65) = assay: Immunofluorescence of P65 nuclear translocation in Kasumi-1 cells; assay type: cell-based, human; conditions: pretreatment with EriB for one hour, 100 ng/ml TNF-α four hours
Procedure: (VI) Immunofluorescence: the cells were fixed in methanol for five minutes at −20° C., after being washed with PBS, treated by 0.5% Triton-X-permeability, blocked with 1% BSA, and incubated with anti-P65 antibody at room temperature for one hour; after being washed again with PBS and incubated with the fluorescent-label IgG at room temperature for 30 minutes. The cells were incubated with Hochest 33258 for five minutes later, and observations were proceeded under the fluorescent microscope.

Kasumi-1 cells [9] = assay: Cell survival (trypan blue dye-exclusion); assay type: cell-based, human; conditions: 48 hours
Excerpt: as §4

Kasumi-1 cells [10] = assay: Cell cycle analysis (nuclear DNA content, PI); assay type: cell-based, human; conditions: 0.25 μM EriB for 6, 12, 24 and 48 hours
Procedure: as §1

Bcl-XL = assay: Western blot and RT-PCR of Bcl-XL in Kasumi-1 cells; assay type: cell-based, human; conditions: EriB 24 and 48 hours
Procedure: as §2, §3

Kasumi-1 cells [11] = assay: Kasumi-1 xenograft tumor model in nude mice; assay type: in vivo; conditions: EriB 2.5 mg/kg intraperitoneal, day 10 to day 19; P<0.05
Procedure: Another xenograft tumor model was established through subcutaneous injection in nude mice of 3×10^7 Kasumi-1 cells (day 0). The incubation period of tumor formation at the site of injection was about 8-12 days. Beginning from day 10, the mice were treated with EriB (2.5 mg/kg) by intraperitoneal injection only until day 19.

Kasumi-1 cells [12] = assay: Annexin V-FITC/PI apoptosis flow cytometry; assay type: cell-based, human; conditions: 0.5 μM EriB
Procedure: as §1

U937 cells = assay: MTT cell growth inhibition; assay type: cell-based, human; conditions: 72 hours
Excerpt: as §4, §6

NB4 cells = assay: MTT cell growth inhibition; assay type: cell-based, human; conditions: 72 hours
Excerpt: as §4, §6

Raji cells = assay: MTT cell growth inhibition; assay type: cell-based, human; conditions: 72 hours
Excerpt: as §4, §6

NB4/R1 cells = assay: MTT cell growth inhibition; assay type: cell-based, human; conditions: 72 hours
Excerpt: as §4, §6

NB4/R2 cells = assay: MTT cell growth inhibition; assay type: cell-based, human; conditions: 72 hours
Excerpt: as §4, §6

Jurkat cells = assay: MTT cell growth inhibition; assay type: cell-based, human; conditions: 72 hours
Excerpt: as §4, §6

Daudi cells = assay: MTT cell growth inhibition; assay type: cell-based, human; conditions: 72 hours
Excerpt: as §4, §6

O[C@H](CS)[C@H](O)CS (racemic) [DTT, dithiothreitol, reference compound]
ROS level (Kasumi-1 cells [1]; 0.2 mM DTT and EriB jointly incubated): has not changed
effect on EriB-induced apoptosis (Rh123) (Kasumi-1 cells [2]; 0.2 mM DTT with 0.5 μM EriB): completely inhibit

C=C1C(=O)[C@]23C[C@H]1CC[C@H]2[C@@]12CO[C@]3(O)[C@@H](O)[C@@H]1C(C)(C)C=CC2=O [EriB, Eriocalyxin B]
Bax expression (Bax): have not changed significantly
cell inhibition [3]: more than 60%
ERK1/2 phosphorylation level (ERK1/2): rapidly decreased
AP-1 luciferase activity increase (AP-1): about three
Bcl-2 protein and mRNA levels (Bcl-2): have decreased
NF-κB activation (DNA binding, EMSA) (NF-κB [4]): can block NF-κB activation
induction of differentiation (CD11b, CD13, CD14, CD33, CD34, CD64) (Kasumi-1 cells [5]): did not induce differentiation
concentration that inhibits the growth of the cells [6]: 0.2 to 2 µM
median survival time ([7]; EriB 1.25 mg/kg intraperitoneal for two weeks): 28 days
median survival time ([7]; EriB 2.5 mg/kg intraperitoneal for two weeks): 32 days
spleen size versus untreated mice ([7]; EriB intraperitoneal, 20 days): obviously smaller
AML1-ETO fusion protein level (AML1-ETO fusion protein): AML1-ETO degradation
caspase-3 activation (caspase-3): activated
IC50 (HL60 cells): 1000 nM
base luciferase activity and TNF-α-induced NF-κB activity (NF-κB [8]): have been blocked
TNF-α-induced P65 translocation into nucleus (NF-κB (P65)): significantly prevent
cell death (Kasumi-1 cells [9]; 0.25 μM EriB): 42.7±6.5%
cell death (Kasumi-1 cells [9]; 0.75 μM EriB): 90.5±4.3%
proportion of sub-G1 cells (Kasumi-1 cells [10]): higher proportion of sub-G1
cell level of ROS compared with untreated cells (Kasumi-1 cells [1]; 0.5 μM EriB alone for 2 hours): about two
mitochondrial transmembrane potential (Kasumi-1 cells [2]; EriB 24 and 48 hours, time and dose dependent): decreased significantly
Bcl-XL protein and mRNA levels (Bcl-XL): have decreased
tumor size versus control group (Kasumi-1 cells [11]): significantly reduce tumor size
annexin V-positive cells proportion (Kasumi-1 cells [12]; 48 hours): 88.6%
IC50 (U937 cells): 1000 nM
IC50 (NB4 cells): < 1000 nM and 500 nM
IC50 (Raji cells): > 1500 nM
IC50 (NB4/R1 cells): < 1000 nM and 1000 nM
IC50 (NB4/R2 cells): < 1000 nM and 500 nM
IC50 (Jurkat cells): > 1500 nM
IC50 (Daudi cells): > 1500 nM

COC(=O)CC[C@H](NC(=O)[C@H](CC(=O)OC)NC(=O)OCc1ccccc1)C(=O)N[C@H](C(=O)N[C@@H](CC(=O)OC)C(=O)CF)C(C)C [Z-DEVD-fmk, reference compound]
effect on rate of EriB-induced apoptosis (annexin V positive cell proportion) (Kasumi-1 cells [12]; 40 μM Z-DEVD-fmk pre-treatment one hour): only partially reduced
